Here are results for ten molecules from patent publication US20120028990A1, “3 ARYL OR HETEROARYL-SUBSTITUTED INDOLE DERIVATIVE” (MSD K.K, priority 2010, published 2012).

The IC50 is the point on the concentration scale where inhibition reaches its midpoint. Lower therefore signals inhibition by little substance.

The target in this assay is T1, human QRFP receptor (GPR103) (Homo sapiens, UniProt Q96P65).
T1 construct: expressed in transfected cells; host or cells: CHO-K1 NFAT beta-lactamase (Aurora); membrane sample
T1 sequence (Q96P65 1-431): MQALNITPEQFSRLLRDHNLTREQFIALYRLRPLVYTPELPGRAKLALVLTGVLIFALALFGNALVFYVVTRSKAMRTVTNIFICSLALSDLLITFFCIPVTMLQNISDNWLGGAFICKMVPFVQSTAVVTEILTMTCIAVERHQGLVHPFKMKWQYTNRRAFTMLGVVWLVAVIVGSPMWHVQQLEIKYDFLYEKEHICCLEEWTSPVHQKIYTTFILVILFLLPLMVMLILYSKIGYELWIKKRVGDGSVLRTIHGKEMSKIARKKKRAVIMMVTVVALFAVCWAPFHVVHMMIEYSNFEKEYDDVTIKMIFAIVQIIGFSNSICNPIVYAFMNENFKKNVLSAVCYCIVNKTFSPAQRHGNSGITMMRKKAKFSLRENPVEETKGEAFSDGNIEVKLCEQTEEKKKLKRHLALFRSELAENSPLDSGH
In words: QRFP43-binding inhibitory test. The settings on record: inhibition of specific [125I]QRFP43 binding; membranes of CHO-K1 cells expressing GPR103; 25° C., 1 hour. The source says: A cDNA sequence [Accession No. NM_198179] coding for a human QRFP receptor (GPR103) was cloned in an expression vector pEF1V5-HisB (by Invitrogen). The resulting expression vector was transfected in a host cell CHO-K1 NFAT (3-Lactamase (by Aurora), according to a cationic lipid process [see Proceedings of the National Academy of Sciences of the United States of America, Vol. 84, p. 7413, 1987], thereby producing a QRFP receptor (GPR103).
A membrane sample prepared from the cells having expressed a QRFP receptor (GPR103) was incubated in an assay buffer (50 mM Tris-HCl, 1 mM EDTA and 0.1% BSA, pH 7.4) along with a test compound and 20,000 cpm [^125I] QRFP43 (by Perkin Elmer) therein, at 25° C. for 1 hour, and then filtered through a glass filter GF/C. After washed with 50 mM Tris-HCl (containing 2 mM EDTA, 10 mM MgCl2 and 0.04% Tween-20) buffer (pH 7.4), the radioactivity on the glass filter was determined. The non-specific binding was determined in the presence of 1 μM peptide QRFP43, and the 50% inhibitory concentration (IC50) of the test compound to the specific [^125I] QRFP43 binding was computed [see Endocrinology, Vol. 131, p. 2090, 1992].

`O=C(NCCCCC(c1ccco1)N1CCCC1)c1[nH]c2ccc(Cl)cc2c1-c1ccoc1` (racemic) [Example 8, 5-chloro-3-(3-fury)-N-[5-(2-furyl)-5-pyrrolidin-1-ylpentyl]-1H-indole-2-carboxamide] displayed an IC50 of 0.58 nM.

Take `CN1CC[C@H]2C[C@H](NC(=O)c3[nH]c4ccc(Cl)cc4c3-c3ccoc3)CC[C@@H]2C1` (single isomer, unassigned) [Example 7, 5-chloro-3-(3-fury)-N-(2-methyldecahydroisoquinolin-6-yl)-1H-indole-2-carboxamide]: the IC50 is 9.82 nM. Under `CNC(CCCCNC(=O)c1[nH]c2ccccc2c1-c1ccoc1)c1ccccn1` (single isomer, unassigned) [Example 9, 3-(3-fury)-N-[5-(methylamino)-5-pyridin-2-ylpentyl]-1H-indole-2-carboxamide] stands 1.06 nM; under `CN1CC[C@H]2C[C@H](NC(=O)c3cc4cc(Cl)ccc4n3C)CC[C@@H]2C1` (single isomer, unassigned) [Reference example 1, 5-chloro-1-methyl-N-(2-methyldecahydroisoquinolin-6-yl)-1H-indole-2-carboxamide], 22.6 nM; under `CN1CCN(CCNC(=O)c2[nH]c3ccc(Cl)cc3c2-c2ccoc2)CC1` [Example 1, 5-chloro-3-(3-fury)-N-[2-(4-methylpiperazin-1-yl)ethyl]-1H-indole-2-carboxamide], 2.26 nM. Under `CN1CCN(CCNC(=O)c2[nH]c3ccc(Cl)cc3c2-c2ccsc2)CC1` [Example 2, 5-chloro-N-[2-(4-methylpiperazin-1-yl)ethyl]-3-(3-thienyl)-1H-indole-2-carboxamide] stands 4.71 nM; under `CN1CCN(CCNC(=O)c2[nH]c3ccc(Cl)cc3c2-c2cccs2)CC1` [Example 3, 5-chloro-N-[2-(4-methylpiperazin-1-yl)ethyl]-3-(2-thienyl)-1H-indole-2-carboxamide], 4.68 nM; under `CN1CCN(CCNC(=O)c2[nH]c3ccc(Cl)cc3c2-c2cscn2)CC1` [Example 4, 5-chloro-N-[2-(4-methylpiperazin-1-yl)ethyl]-3-(1,3-thiazol-4-yl)-1H-indole-2-carboxamide], 14.2 nM. Under `CN1CCN(CCNC(=O)c2[nH]c3ccc(Cl)cc3c2-c2ccccc2)CC1` [Example 5, 5-chloro-N-[2-(4-methylpiperazin-1-yl)ethyl]-3-phenyl-1H-indole-2-carboxamide] stands 11.4 nM; under `CN1CCC(CCNC(=O)c2[nH]c3ccc(Cl)cc3c2-c2ccoc2)CC1` [Example 6, 5-chloro-3-(3-fury)-N-[2-(1-methylpiperidin-4-yl)ethyl]-1H-indole-2-carboxamide], 6.24 nM.
